Measurements as given in publication PMC11124822, “Discovery and Anticancer Screening of Novel Oxindole-Based Derivative Bearing Pyridyl Group as Potent and Selective Dual FLT3/CDK2 Kinase Inhibitor” (Pharmaceuticals, 2024).

Tests used:
CCRF-CEM = experiment: NCI-60 antiproliferative screen (SRB); format: cell-based, human; details: Homo sapiens; 10 µM single dose, 48 h; CCRF-CEM (Leukemia); read-out: Growth inhibition (%)
MOLT-4 = experiment: NCI-60 antiproliferative screen (SRB); format: cell-based; details: Homo sapiens; 10 µM single dose, 48 h; MOLT-4 (Leukemia); read-out: Growth inhibition (%)
RPMI-8226 = experiment: NCI-60 antiproliferative screen (SRB); format: cell-based, human; details: Homo sapiens; 10 µM single dose, 48 h; RPMI-8226 (Leukemia); read-out: Growth inhibition (%)
A549/ATCC = experiment: NCI-60 antiproliferative screen (SRB); format: cell-based, human; details: Homo sapiens; 10 µM single dose, 48 h; A549/ATCC (NSCLC); read-out: Growth inhibition (%)
HOP-62 = experiment: NCI-60 antiproliferative screen (SRB); format: cell-based, human; details: Homo sapiens; 10 µM single dose, 48 h; HOP-62 (NSCLC); read-out: Growth inhibition (%)
HOP-92 = experiment: NCI-60 antiproliferative screen (SRB); format: cell-based, human; details: Homo sapiens; 10 µM single dose, 48 h; HOP-92 (NSCLC); read-out: Growth inhibition (%)
NCI-H23 = experiment: NCI-60 antiproliferative screen (SRB); format: cell-based, human; details: Homo sapiens; 10 µM single dose, 48 h; NCI-H23 (NSCLC); read-out: Growth inhibition (%)
COLO 205 = experiment: NCI-60 antiproliferative screen (SRB); format: cell-based, human; details: Homo sapiens; 10 µM single dose, 48 h; COLO 205 (Colon); read-out: Growth inhibition (%)
HCC-2998 = experiment: NCI-60 antiproliferative screen (SRB); format: cell-based, human; details: Homo sapiens; 10 µM single dose, 48 h; HCC-2998 (Colon); read-out: Growth inhibition (%)
HCT-15 = experiment: NCI-60 antiproliferative screen (SRB); format: cell-based, human; details: Homo sapiens; 10 µM single dose, 48 h; HCT-15 (Colon); read-out: Growth inhibition (%)
KM12 = experiment: NCI-60 antiproliferative screen (SRB); format: cell-based, human; details: Homo sapiens; 10 µM single dose, 48 h; KM12 (Colon); read-out: Growth inhibition (%)
SW-620 = experiment: NCI-60 antiproliferative screen (SRB); format: cell-based, human; details: Homo sapiens; 10 µM single dose, 48 h; SW-620 (Colon); read-out: Growth inhibition (%)
SF-268 = experiment: NCI-60 antiproliferative screen (SRB); format: cell-based, human; details: Homo sapiens; 10 µM single dose, 48 h; SF-268 (CNS); read-out: Growth inhibition (%)
SF-539 = experiment: NCI-60 antiproliferative screen (SRB); format: cell-based, human; details: Homo sapiens; 10 µM single dose, 48 h; SF-539 (CNS); read-out: Growth inhibition (%)
SK-MEL-2 = experiment: NCI-60 antiproliferative screen (SRB); format: cell-based, human; details: Homo sapiens; 10 µM single dose, 48 h; SK-MEL-2 (Melanoma); read-out: Growth inhibition (%)
SK-MEL-28 = experiment: NCI-60 antiproliferative screen (SRB); format: cell-based, human; details: Homo sapiens; 10 µM single dose, 48 h; SK-MEL-28 (Melanoma); read-out: Growth inhibition (%)
SK-MEL-5 = experiment: NCI-60 antiproliferative screen (SRB); format: cell-based, human; details: Homo sapiens; 10 µM single dose, 48 h; SK-MEL-5 (Melanoma); read-out: Growth inhibition (%)
OVCAR-5 = experiment: NCI-60 antiproliferative screen (SRB); format: cell-based, human; details: Homo sapiens; 10 µM single dose, 48 h; OVCAR-5 (Ovarian); read-out: Growth inhibition (%)
OVCAR-8 = experiment: NCI-60 antiproliferative screen (SRB); format: cell-based, human; details: Homo sapiens; 10 µM single dose, 48 h; OVCAR-8 (Ovarian); read-out: Growth inhibition (%)
SK-OV-3 = experiment: NCI-60 antiproliferative screen (SRB); format: cell-based, human; details: Homo sapiens; 10 µM single dose, 48 h; SK-OV-3 (Ovarian); read-out: Growth inhibition (%)
A498 = experiment: NCI-60 antiproliferative screen (SRB); format: cell-based, human; details: Homo sapiens; 10 µM single dose, 48 h; A498 (Renal); read-out: Growth inhibition (%)
ACHN = experiment: NCI-60 antiproliferative screen (SRB); format: cell-based, human; details: Homo sapiens; 10 µM single dose, 48 h; ACHN (Renal); read-out: Growth inhibition (%)
CAKI-1 = experiment: NCI-60 antiproliferative screen (SRB); format: cell-based, human; details: Homo sapiens; 10 µM single dose, 48 h; CAKI-1 (Renal); read-out: Growth inhibition (%)
SN12C = experiment: NCI-60 antiproliferative screen (SRB); format: cell-based, human; details: Homo sapiens; 10 µM single dose, 48 h; SN12C (Renal); read-out: Growth inhibition (%)
TK-10 = experiment: NCI-60 antiproliferative screen (SRB); format: cell-based, human; details: Homo sapiens; 10 µM single dose, 48 h; TK-10 (Renal); read-out: Growth inhibition (%)
MCF7 = experiment: NCI-60 antiproliferative screen (SRB); format: cell-based, human; details: Homo sapiens; 10 µM single dose, 48 h; MCF7 (Breast); read-out: Growth inhibition (%)
MDA-MB-231 = experiment: NCI-60 antiproliferative screen (SRB); format: cell-based, human; details: Homo sapiens; 10 µM single dose, 48 h; MDA-MB-231 (Breast); read-out: Growth inhibition (%)
T-47D = experiment: NCI-60 antiproliferative screen (SRB); format: cell-based, human; details: Homo sapiens, T47D; 10 µM single dose, 48 h; T-47D (Breast); read-out: Growth inhibition (%)
SNB-75 = experiment: NCI-60 antiproliferative screen (SRB); details: Homo sapiens, SNB-75, 48 h, read-out: Growth inhibition (%)

O=C1Nc2cc(Cl)ccc2C1=Cc1ccc(OCc2ccccc2)cc1 (mixture of isomers) [Compound 5d, (E/Z)-3-[4-(Benzyloxy)benzylidene]-6-chloroindolin-2-one]
inhibition at 10 µM (CCRF-CEM): -2.18%
inhibition at 10 µM (MOLT-4): 0.86%
inhibition at 10 µM (RPMI-8226): -7.36%
inhibition at 10 µM (A549/ATCC): -4.59%
inhibition at 10 µM (HOP-62): 3.85%
inhibition at 10 µM (HOP-92): -8.67%
inhibition at 10 µM (NCI-H23): 5.71%
inhibition at 10 µM (COLO 205): -9.74%
inhibition at 10 µM (HCC-2998): -1.79%
inhibition at 10 µM (HCT-15): 5%
inhibition at 10 µM (KM12): 4.92%
inhibition at 10 µM (SW-620): 0.6%
inhibition at 10 µM (SF-268): 5.55%
inhibition at 10 µM (SF-539): 5.48%
inhibition at 10 µM (SK-MEL-2): -11.3%
inhibition at 10 µM (SK-MEL-28): -2.97%
inhibition at 10 µM (SK-MEL-5): 2.83%
inhibition at 10 µM (OVCAR-5): -0.55%
inhibition at 10 µM (OVCAR-8): -0.41%
inhibition at 10 µM (SK-OV-3): -3.01%
inhibition at 10 µM (A498): 6.98%
inhibition at 10 µM (ACHN): 5.18%
inhibition at 10 µM (CAKI-1): 10.7%
inhibition at 10 µM (SN12C): 4.03%
inhibition at 10 µM (TK-10): -54%
inhibition at 10 µM (MCF7): 38.4%
inhibition at 10 µM (MDA-MB-231): -3.65%
inhibition at 10 µM (T-47D): 4.32%
melting point: 259 to 261 °C
inhibition at 10 µM (SNB-75): 26.7%

O=C1Nc2ccc(F)cc2C1=Cc1ccc(OCc2ccccn2)cc1 (mixture of isomers) [Compound 5f, (E/Z)-5-fluoro-3-[4-(pyridin-2-ylmethoxy)benzylidene]indolin-2-one]
inhibition at 10 µM (CCRF-CEM): 5.79%
inhibition at 10 µM (MOLT-4): 3.55%
inhibition at 10 µM (RPMI-8226): 19.4%
inhibition at 10 µM (A549/ATCC): -1.04%
inhibition at 10 µM (HOP-62): -7.71%
inhibition at 10 µM (HOP-92): 32.9%
inhibition at 10 µM (NCI-H23): 28%
inhibition at 10 µM (COLO 205): -10.8%
inhibition at 10 µM (HCC-2998): -20.2%
inhibition at 10 µM (HCT-15): 10.7%
inhibition at 10 µM (KM12): 18.8%
inhibition at 10 µM (SW-620): -2.79%
inhibition at 10 µM (SF-268): 29.9%
inhibition at 10 µM (SF-539): 47.7%
inhibition at 10 µM (SK-MEL-2): -3.45%
inhibition at 10 µM (SK-MEL-28): -8.53%
inhibition at 10 µM (SK-MEL-5): -5.85%
inhibition at 10 µM (OVCAR-5): -9.45%
inhibition at 10 µM (OVCAR-8): 3.52%
inhibition at 10 µM (SK-OV-3): 3.75%
inhibition at 10 µM (A498): 32.5%
inhibition at 10 µM (ACHN): 23.8%
inhibition at 10 µM (CAKI-1): 33.5%
inhibition at 10 µM (SN12C): 4.04%
inhibition at 10 µM (TK-10): 4.47%
inhibition at 10 µM (MCF7): 37.8%
inhibition at 10 µM (MDA-MB-231): 14.9%
inhibition at 10 µM (T-47D): 60.7%
melting point: 226 to 228 °C
inhibition at 10 µM (SNB-75): 10.2%

O=C1Nc2ccc(Cl)cc2C1=Cc1ccc(OCc2ccccn2)cc1 (mixture of isomers) [Compound 5g, (E/Z)-5-Chloro-3-[4-(pyridin-2-ylmethoxy)benzylidene] indolin-2-one]
inhibition at 10 µM (CCRF-CEM): 16.8%
inhibition at 10 µM (MOLT-4): 53.1%
inhibition at 10 µM (RPMI-8226): 26.1%
inhibition at 10 µM (A549/ATCC): 35.6%
inhibition at 10 µM (HOP-62): 54.4%
inhibition at 10 µM (HOP-92): 27.9%
inhibition at 10 µM (NCI-H23): 37.8%
inhibition at 10 µM (COLO 205): 10.9%
inhibition at 10 µM (HCC-2998): -4.51%
inhibition at 10 µM (HCT-15): 64.3%
inhibition at 10 µM (KM12): 21.2%
inhibition at 10 µM (SW-620): 52.5%
inhibition at 10 µM (SF-268): 20.7%
inhibition at 10 µM (SF-539): 26.5%
inhibition at 10 µM (SK-MEL-2): -11.4%
inhibition at 10 µM (SK-MEL-28): -0.48%
inhibition at 10 µM (SK-MEL-5): 10.5%
inhibition at 10 µM (OVCAR-5): 11.8%
inhibition at 10 µM (OVCAR-8): 54.1%
inhibition at 10 µM (SK-OV-3): 10.8%
inhibition at 10 µM (A498): 54.9%
inhibition at 10 µM (ACHN): 43%
inhibition at 10 µM (CAKI-1): 38.4%
inhibition at 10 µM (SN12C): 55.5%
inhibition at 10 µM (TK-10): 9.89%
inhibition at 10 µM (MCF7): 71.1%
inhibition at 10 µM (MDA-MB-231): 78.3%
inhibition at 10 µM (T-47D): 31%
melting point: 219 to 220 °C
inhibition at 10 µM (SNB-75): -12.6%
